Measurements: PMC8219695 (Nature Communications, 2021)
Several values for one entry are separate records, joined by “and”; a condition that tells them apart may be missing. Equal values may be shown once.

Columns and labels:
CD1 mice = assay: Tail-flick antinociception in CD1 mice; assay type: in vivo, mouse; settings: sc; for Tail flick (%MPE), average / Tail flick latency in secs, Av / Tail flick latency in secs, av: average of 8 animals; for Tail flick (%MPE) / Tail flick latency: individual animals
mMOR [1] = biological target: T1, mMOR (Mus musculus, UniProt P42866); assay: BRET-based Nb33 recruitment assay at mMOR; assay type: cell-based; settings: single replicates, source data Fig 7a
T1 construct: signal peptide (heterologous, not specified) (N); expressed in transfected cells; pcDNA3.1(+) construct made in house

hMOR = biological target: T2, hMOR (Homo sapiens, UniProt P35372); assay: CAMYEL BRET cAMP agonist assay at hMOR; assay type: cell-based; settings: hMOR, single replicates, source data Fig 6c
T2 construct: expressed in transfected cells; plasmid a gift from Dr. Nevin Lambert

mMOR [2] = biological target: T1, mMOR; assay: CAMYEL BRET cAMP agonist assay at mMOR; assay type: cell-based; settings: mMOR, single replicates, source data Fig 6b
[3] = Log[drug] (M) -13, cAMP inhibition as % of DAMGO

T2 sequence (P35372 whole entry): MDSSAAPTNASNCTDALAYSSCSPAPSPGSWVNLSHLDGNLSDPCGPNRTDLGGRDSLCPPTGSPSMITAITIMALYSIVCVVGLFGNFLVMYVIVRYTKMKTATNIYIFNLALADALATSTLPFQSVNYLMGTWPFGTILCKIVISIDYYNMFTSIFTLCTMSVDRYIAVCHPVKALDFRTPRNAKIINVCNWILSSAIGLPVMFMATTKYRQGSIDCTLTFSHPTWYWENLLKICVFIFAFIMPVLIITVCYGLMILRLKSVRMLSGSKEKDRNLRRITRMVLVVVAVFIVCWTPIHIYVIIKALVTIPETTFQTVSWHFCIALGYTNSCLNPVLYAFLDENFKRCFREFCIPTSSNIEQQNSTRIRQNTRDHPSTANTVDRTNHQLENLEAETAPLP
T1 sequence (P42866 whole entry): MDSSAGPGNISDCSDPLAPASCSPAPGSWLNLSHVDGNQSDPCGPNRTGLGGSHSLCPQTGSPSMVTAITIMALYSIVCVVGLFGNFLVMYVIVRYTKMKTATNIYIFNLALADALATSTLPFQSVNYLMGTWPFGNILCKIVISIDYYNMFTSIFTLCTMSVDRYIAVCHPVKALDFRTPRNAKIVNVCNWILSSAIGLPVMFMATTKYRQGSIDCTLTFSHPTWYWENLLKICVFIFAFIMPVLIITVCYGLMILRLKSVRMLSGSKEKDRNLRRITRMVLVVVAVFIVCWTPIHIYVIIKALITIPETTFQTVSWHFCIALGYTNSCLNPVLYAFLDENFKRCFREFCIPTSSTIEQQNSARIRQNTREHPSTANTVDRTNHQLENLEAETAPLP

## CC[C@@H]1CN2CC[C@@]3(O)C(=Nc4cc(Cl)cc(OC)c43)[C@@H]2C[C@@H]1/C(=C\OC)C(=O)OC [11-Cl-7OH]
CD1 mice; 5 mg/kg, 15 min
  %MPE: 2.8 %MPE
  Tail flick (%MPE), average: 2.3 %MPE
  Tail flick latency in secs, Av: 3.3 s
  Tail flick (%MPE): -5.1 %MPE and -18.5 %MPE and 0.7 %MPE and 1.6 %MPE (2×) and 16.4 %MPE and 17.5 %MPE and 4.0 %MPE
  Tail flick latency: 2.75 secs and 2.65 secs and 2.95 secs and 3.7 secs (2×) and 4.4 secs and 3.4 secs and 2.8 secs
CD1 mice; 5 mg/kg, 30 min
  %MPE: 1.6 %MPE
  Tail flick (%MPE), average: 1.3 %MPE
  Tail flick latency in secs, Av: 3.2 s
  Tail flick (%MPE): -2.2 %MPE and -3.2 %MPE and 0.7 %MPE and -10.9 %MPE and 7.5 %MPE and 4.7 %MPE and 10.0 %MPE and 4.0 %MPE
  Tail flick latency: 2.95 secs (2×) and 3.6 secs and 2.9 secs and 3.8 secs and 3.9 secs and 2.8 secs (2×)
CD1 mice; 5 mg/kg, 60 min
  %MPE: 3.3 %MPE
  Tail flick latency in secs, Av: 3.3 s
  Tail flick (%MPE): -2.9 %MPE and -16.1 %MPE and 7.0 %MPE and -1.6 %MPE and 1.5 %MPE and -10.9 %MPE and 21.3 %MPE and 20.0 %MPE
  Tail flick latency: 2.9 secs (2×) and 2.8 secs and 3.4 secs (2×) and 3.5 secs and 3.7 secs and 4 secs
CD1 mice; 25 mg/kg, 15 min
  %MPE: 2.83 %MPE
  Tail flick (%MPE), average: 2.6 %MPE
  Tail flick latency in secs, av: 2.9 s
  Tail flick (%MPE): 12.5 %MPE and -0.8 %MPE and 0.7 %MPE and -0.7 %MPE (2×) and 10.4 %MPE and -3.5 %MPE and 2.7 %MPE
  Tail flick latency: 3.0 secs (2×) and 3.5 secs and 2.8 secs and 2.6 secs (2×) and 3.1 secs and 2.9 secs
CD1 mice; 25 mg/kg, 30 min
  %MPE: 5.91 %MPE
  Tail flick (%MPE), average: 5.5 %MPE
  Tail flick latency in secs, av: 3.1 s
  Tail flick (%MPE): 12.5 %MPE and -11.5 %MPE and 9.0 %MPE and 3.6 %MPE and 10.1 %MPE and 10.4 %MPE and 3.5 %MPE and 6.8 %MPE
  Tail flick latency: 3.0 secs and 2.8 secs and 3.4 secs (2×) and 3.3 secs and 3.1 secs (2×) and 3.2 secs
CD1 mice; 25 mg/kg, 60 min
  %MPE: 6.34 %MPE
  Tail flick (%MPE), average: 6.0 %MPE
  Tail flick latency in secs, av: 3.2 s
  Tail flick (%MPE): 7.5 %MPE and -7.7 %MPE and 10.3 %MPE and 2.1 %MPE and 12.2 %MPE and 22.1 %MPE and 0.7 %MPE (2×)
  Tail flick latency: 2.6 secs and 3.0 secs and 3.5 secs (2×) and 3.2 secs and 4.0 secs and 2.9 secs and 2.8 secs
CD1 mice; 25 mg/kg, 150 min
  %MPE: 2.66 %MPE
  Tail flick (%MPE), average: -0.273 %MPE
  Tail flick latency in secs, av: 2.9 s
  Tail flick (%MPE): -10.0 %MPE and 3.1 %MPE and 2.8 %MPE and -5.0 %MPE and 4.7 %MPE and 2.9 %MPE and -0.7 %MPE and 0.0 %MPE
  Tail flick latency: 2.3 secs and 3.7 secs and 3.0 secs and 2.6 secs and 2.9 secs (2×) and 3.3 secs and 2.5 secs

## CN1CC[C@]23c4c5ccc(O)c4O[C@H]2[C@@H](O)C=C[C@H]3[C@H]1C5 [Morphine, morphine, reference compound]
CD1 mice; Fig 9b, Morphine 10 mg/kg
  Tail flick (%MPE): 32.79 %MPE and 42.86 %MPE and 100.00 %MPE (6×) and 61.73 %MPE and 52.00 %MPE
  Tail flick latency: 5.9 and 6 and 10 (6×) and 6.9 and 6.4

## C[C@@H](NC(=O)[C@@H](N)Cc1ccc(O)cc1)C(=O)NCC(=O)N(C)[C@@H](Cc1ccccc1)C(=O)NCCO [DAMGO, [D-Ala^2, N-Me-Phe^4, Gly^5-ol]-enkephalin, reference compound]
mMOR [1]; Log[drug] (M) -4
  Nb33 BRET assay at mMOR, response: 116.548 and 99.0991 and 123.097 and 102.778 and 111.876 and 86.5818 and 91.4453 and 105.421 and 94.7199 and 96.8839 and 110.228 and 105.758 and 96.6672 and 105.453 and 97.0797 and 106.37 and 115.431 and 97.3489 and 102.87 and 112.822 and 97.3627
mMOR [1]; Log[drug] (M) -5
  Nb33 BRET assay at mMOR, response: 78.3004 and 105.49 and 93.3001 and 92.3549 and 96.5229 and 94.3135 and 107.346 and 108.338 and 93.8039 and 95.4962 and 95.2898 and 96.1807 and 98.423 and 95.5858 and 88.3338 and 114.596 and 90.0997 and 91.8485 and 91.211 and 101.524 and 97.9528
mMOR [1]; Log[drug] (M) -8
  Nb33 BRET assay at mMOR, response: 25.6157 and -0.9817 and 2.276 and 16.2956 and 7.2069 and 3.257 and 8.405 and 5.376 and 16.5535 and 18.8366 and 6.195 and 12.7572 and 5.664 and 5.763 and 13.2066 and 17.6481
mMOR [1]; Log[drug] (M) -9
  Nb33 BRET assay at mMOR, response: 2.545 and 18.2179 and 1.398 and 13.71 and 1.7362 and 12.589 and -5.813 and 7.089 and -10.8919 and 4.229 and 0.1289 and 0.7333 and 3.575 and -0.9155 and 34.3413 and 6.961 and -1.352 and 3.399 and 3.853 and 3.842 and 2.552
mMOR [1]; Log[drug] (M) -10
  Nb33 BRET assay at mMOR, response: 3.45 and -1.0779 and -15.1434 and 16.2214 and 5.631 and -0.462 and -5.169 and -3.138 and 4.714 and -1.576 and 1.587 and 11.4832 and -0.3739 and -1.213 and -14.9335 and -0.4874 and 0.03891 and 0.4485 and -4.142 and 2.431 and 1.7112
hMOR; Log[drug] (M) -5
  cAMP %: 103.124% and 109.477% and 102.684% and 110.427% and 108.861% and 108.591% and 112.306% and 111.09%
hMOR; Log[drug] (M) -6
  cAMP %: 98.2575% and 92.1607% and 109.669% and 106.978% and 96.9047% and 104.556% and 112.319% and 93.9893% and 98.3933%
hMOR; Log[drug] (M) -7
  cAMP %: 84.826% and 103.003% and 98.5438% and 92.203% and 94.9009% and 88.7302% and 91.8158% and 88.9226% and 95.649%
hMOR; Log[drug] (M) -8
  cAMP %: 90.1183% and 95.617% and 94.9621% and 80.7074% and 80.5991% and 79.7704% and 101.871%
hMOR; Log[drug] (M) -9
  cAMP %: 83.2929% and 84.9251% and 85.9398% and 87.1639% and 70.6227% and 86.8862% and 70.8595%
hMOR; Log[drug] (M) -10
  cAMP %: 23.9872% and 31.9271% and 31.1042% and 26.2749% and 20.3118% and 16.9632% and 5.794% and 13.2278% and 15.6275%
hMOR; Log[drug] (M) -11
  cAMP %: 7.017% and -4.712% and 3.0598% and 13.9517% and -4.528% and 3.447% and 8.388% and -3.773% and -4.615%
hMOR; [3]
  cAMP %: 1.163% and -6.717% and 5.554% and 6.145% and -10.7075% and 4.5627% and 2.101% and 2.953% and 0.8452%
mMOR [2]; Log[drug] (M) -5
  cAMP %: 102.015% and 97.5784% and 104.579% and 96.6295% and 98.3687% and 104.58% and 107.049% and 113.123% and 108.981%
mMOR [2]; Log[drug] (M) -6
  cAMP %: 105.759% and 89.6935% and 102.343% and 97.3213% and 106.448% and 102.195% and 98.7916% and 100.678% and 92.5396%
mMOR [2]; Log[drug] (M) -7
  cAMP %: 94.7459% and 89.7557% and 84.4404% and 103.092% and 95.8909% and 105.68% and 91.1195% and 91.3937% and 91.5037%
mMOR [2]; Log[drug] (M) -8
  cAMP %: 54.4279% and 44.3207% and 58.3553% and 86.2498% and 84.9633% and 88.7212% and 82.7217% and 81.9867% and 95.6687%
mMOR [2]; Log[drug] (M) -9
  cAMP %: 14.6461% and 18.37% and 18.8483% and 47.9% and 59.4105% and 56.9807% and 36.8388% and 43.8092% and 46.1925%
mMOR [2]; Log[drug] (M) -10
  cAMP %: 1.728% and 0.08907% and -1.817% and 16.1543% and 6.811% and 19.2753% and 3.3167% and 1.639% and 10.5208%
mMOR [2]; Log[drug] (M) -11
  cAMP %: 6.094% and 2.441% and 8.528% and 5.436% and 3.7044% and 1.349% and 1.812% and -1.084% and -0.7282%
mMOR [2]; [3]
  cAMP %: -0.3434% and 15.5805% and 1.417% and -1.196% and 0.717% and 0.4788% and 1.6944% and 5.324% and 4.584%
